Measurements from paper PMC10582583, “The novel cyclophilin inhibitor C105SR reduces hepatic ischaemia–reperfusion injury via mitoprotection” (JHEP Reports, 2023).

What was measured:
[1] = test system: isolated mouse liver mitochondria; assay: Ca2+-induced mitochondrial swelling assay; type: biochemical; settings: energised isolated mouse liver mitochondria
[2] = test system: isolated mouse liver mitochondria; assay: Calcium retention capacity (CRC) assay in isolated liver mitochondria; type: biochemical; settings: for mitochondrial CRC vs maximum effect of CsA: 5 μM concentration and above (Fig. 2E); for mitochondrial CRC vs CsA and ALV: 0.5 and 1 μM (Fig. 2E); for maximal mitochondrial CRC, diastereoisomer vs racemic mixture: Fig. 2E; for mitochondrial CRC vs control: diastereoisomers at 100 μM (Fig. 2C); for EC50: isolated mouse liver mitochondria
AML-12 cells [3] = assay: Cell viability by MTT assay, hypoxia/reoxygenation; type: cell-based, mouse; settings: 4 h hypoxia, 2 h reoxygenation; for cell viability (MTT): applied during hypoxia and reoxygenation
Procedure: (§1) As expected, cells subjected to hypoxia/reoxygenation were characterised by greater LDH release and reduced cell viability as compared to untreated controls (Fig. 4A and 4B). […]
Hypoxia/reoxygenation (H/R) in vitro model. […]
(§2) Collection (ATCC) and maintained in William’S E culture medium at 37°C with 5% CO2.When indicated, cells were incubated in phosphate buffered saline at 37°C in a hypoxic chamber filled with 94% N2, 1% O2, 5% CO2 for 4 h to mimic ischemic conditions. Then, cells were transferred to a CO2 incubator at 37°C in regular DMEM/F12 culture medium for 1 or 2 h under normoxic conditions (74% N2, 21% O2, 5% CO2). SMCypIs or vehicle (DMSO) were added during the hypoxia period, during the reoxygenation period, or during both. CsA and ALV were used as positive controls for hepatic protection against H/R injury. […]
Cell viability assays. […]
dimethylthiazol-2-yl)-2,5-diphenyltetrazolium bromide (MTT) assay, cells were incubated with a solution of MTT (0.5 mg/mL) for 2 h at 37°C. The medium was then removed and 50 µL DMSO was added to each well. Optical density of purple formazan product was measured at 550 nm. Cell viability was expressed as a percentage of the untreated control.

AML-12 cells [4] = assay: LDH release, hypoxia/reoxygenation; type: cell-based, mouse; settings: for inhibition of LDH release / LDH release: 4 h hypoxia, 2 h reoxygenation; for LDH release: applied during hypoxia and reoxygenation
Procedure: as §1
as §2, with “Hypoxia/reoxygenation (H/R) in vitro model. AML-12 mouse hepatocyte line was obtained from American Type Culture Collection (ATCC) and maintained in DMEM/F12 culture medium at 37°C with 5% CO2. HepaRG human hepatocyte line was obtained from American Type Culture Collection” for “Collection”
Cell viability assays. Lactate dehydrogenase (LDH) release in culture medium was assessed using the commercially non-radioactive CytoTox-96 kit (Promega, Madison, Wisconsin) following the manufacturer’s instructions. Briefly, cell culture media were collected and the LDH activity was determined by measuring absorbance at 491 nm with a spectrometer (Multiskan skyHigh). For 3-(4,5-dimethylthiazol-2-yl)-2,5-diphenyltetrazolium bromide (MTT) assay, cells were incubated with a solution of MTT (0.5 mg/mL) for 2 h at 37°C. The medium was then removed and 50 µL DMSO was added to each well. Optical density of purple formazan product was measured at 550 nm. Cell viability was expressed as a percentage of the untreated control.

Row | Compound | IC50 [1] [µM] | mitochondrial CRC vs maximum effect of CsA [2] | mitochondrial CRC vs CsA and ALV [2] | maximal mitochondrial CRC, diastereoisomer vs racemic mixture [2] | mitochondrial CRC vs control [2] | EC50 [2] [µM] | viability at 0.5 µM (AML-12 cells [3]; Mus musculus, AML12, 0.5 μM, read-out: increase in cell viability) [%] | cell viability (MTT) (AML-12 cells [3]) | inhibition of cell death (AML-12 cells [4]; 0.5 μM) | inhibition of LDH release (AML-12 cells [4]; 0.5 μM) | LDH release (AML-12 cells [4]) | increase in cell viability (AML-12 cells [3]; 0.5 μM)
1 | COc1ccc(Br)cc1[C@H](NC(=O)NCc1ccc2c(c1)CCCN2)C(=O)N1CCC[C@@H]1c1cccc2ccsc12 [Compound C105SR, 1-((S)-2-((R)-2-(benzo[b]thiophen-7-yl)pyrrolidin-1-yl)-1-(5-bromo-2-methoxyphenyl)-2-oxoethyl)-3-((1,2,3,4-tetrahydroquinolin-6-yl)methyl)urea] | 0.009 ± 0.001 | stronger effect than the maximum effect achieved by CsA | comparable to those of CsA and ALV | 595 ± 38 nmol Ca2+/mg of mitochondrial | greater than control mitochondrial CRC | 0.05 ± 0.02 | ~75 | increased cell viability | inhibited | potent activity inhibiting LDH release | reduced LDH release | –
2 | COc1ccc(Br)cc1[C@H](NC(=O)NCc1ccc(N)cc1)C(=O)N1CCC[C@@H]1c1cccc2ccsc12 [Compound C110SR, 1-(4-aminobenzyl)-3-((S)-2-((R)-2-(benzo[b]thiophen-7-yl)pyrrolidin-1-yl)-1-(5-bromo-2-methoxyphenyl)-2-oxoethyl)urea] | 0.04 ± 0.005 | stronger effect than the maximum effect achieved by CsA | comparable to those of CsA and ALV | 670 ± 52 nmol Ca2+/mg of mitochondrial | greater than control mitochondrial CRC | 0.14 ± 0.02 | – | increased cell viability | – | not effective | reduced LDH release | not effective
